Data as given in patent US12458702B2 (NATIONAL TAIWAN UNIVERSITY, priority 2022, dated 2025).
Entries after “also recorded” stand apart in the source; their conditions may differ. Where two headings read alike, the source gives them in different places.

Experiments:
HCT-116 = assay: Cytotoxicity by SRB assay in HCT-116 cells; assay type: cell-based, human
Procedure: (§1) The fraction of cell survival was calculated as follows. Survival fraction=(OD treated−blank)/(OD control−blank). […] Each experiment was repeated three times.

[1] = test system: CRC cell lines HCT-116 and HT-29; assay: Cytotoxicity against CRC cell lines, summary over both lines (SRB assay); assay type: cell-based, human; conditions: for cytotoxicity against CRC cell lines, in words: HCT-116 and HT-29, with or without GSH; for IC50: read-out: IC50 in CRC cells
Procedure: as §1

HT-29 = assay: Cytotoxicity by SRB assay in HT-29 cells
Procedure: Cancer cell lines were obtained from ATCC unless otherwise noted. HT-29 and HCT-116 cells were cultured in Dulbecco's Modified Eagle Medium (DMEM, Thermo Fisher Scientific) with 10% fetal bovine serum (FBS, Thermo Fisher Scientific) and 1% antibiotic-antimycotic (Thermo Fisher Scientific).
Briefly, CRC cells were seeded at a density of 5×10^3 cells/well in 96-well microtiter plates (100 μL/well), separated into two groups with or without GSH. After incubation for 24 hours, the culture medium was replaced by fresh medium (100 μL). […] After incubation, 10% cold trichloroacetic acid was gently added to each well and incubated at 4° C. for 1 h. The medium was removed, carefully washed with water, and dried at room temperature. […] The optical density (O.D.) was measured at 510 nm with Multi-Mode Microplate Reader (SpectraMax Paradigm, Beckman Coulter, U.S.). The fraction of cell survival was calculated as follows. Survival fraction=(OD treated−blank)/(OD control−blank). […] Each experiment was repeated three times.

[2] = Human plasma stability (RP-HPLC); assay type: in vitro ADME; conditions: 95% human plasma, 37° C.
Procedure: To access human plasma stability, synthesized conjugates were prepared in 95% human plasma. […] The mixture was centrifuged at 13,000 rpm for 5 min. […] For compounds 30 and 31, they were dissolved in DMA and added GSH (11.2 mM or 11.2 μM) solution which was prepared in sodium acetate buffer (10 mM, pH 5.0) in the ratio of 50/40 (v/v, drug in DMA/GSH solution) for final GSH of 5 mM or 5 μM in pH 7.0, respectively. After incubation for the indicated time, samples were centrifuged to collect the clear supernatant and stored at −30° C. until analysis. RP-HPLC injections were carried out at the specified conditions, and the area of peak was integrated for further calculation.

[3] = Stability and drug release in GSH (RP-HPLC); assay type: in vitro ADME
Procedure: […] After incubation for the indicated time, samples were centrifuged to collect the clear supernatant and stored at −30° C. until analysis. RP-HPLC injections were carried out at the specified conditions, and the area of peak was integrated for further calculation.

[4] = test system: orthotopic CRC mice model; assay: Orthotopic AOM/DSS-induced CRC mice model, tumor area; assay type: in vivo, BALB/c mice; conditions: SN-38 series; i.v. once every two days for two weeks; 40 mg/kg vs irinotecan 40 mg/kg
Procedure: Azoxymethane (AOM)-induced murine CRC model was applied to model human CRC. BALB/c mice (6 weeks of age, male) were intraperitoneally (i.p.) injected once every two weeks with AOM (10 mg/kg body weight) or the PBS vehicle. Seven days after each AOM injection, 2% dextran sulfate sodium (DSS) was given in the drinking water for four days, followed by 3 days of regular water. This cycle was repeated three times. The mice were randomly divided into eight groups (n=5), on day 60 after the first AOM treatment. […] Tumor volumes and body weights were recorded at sacrifice. The tumors were counted under a dissecting microscope, and the area covered by tumors was measured by imaging software (AxioVision LE 4.8.2.0).

[5] = Body weight changes in the CRC mice model; assay type: in vivo, BALB/c mice; conditions: during treatment in CRC mice model
Procedure: Azoxymethane (AOM)-induced murine CRC model was applied to model human CRC. BALB/c mice (6 weeks of age, male) were intraperitoneally (i.p.) injected once every two weeks with AOM (10 mg/kg body weight) or the PBS vehicle. Seven days after each AOM injection, 2% dextran sulfate sodium (DSS) was given in the drinking water for four days, followed by 3 days of regular water. This cycle was repeated three times. The mice were randomly divided into eight groups (n=5), on day 60 after the first AOM treatment. […] Irinotecan (20 mg/kg), compound 31 (20 mg/kg), and irinotecan+compound 17 (20 mg/kg of irinotecan and 14 mg/kg of compound 17) were injected i.p. q.o.d for two weeks. […] Tumor volumes and body weights were recorded at sacrifice. The tumors were counted under a dissecting microscope, and the area covered by tumors was measured by imaging software (AxioVision LE 4.8.2.0).

[6] = Homo sapiens, HCT-116, read-out: IC50 HCT-116 5 mM GSH, 48 h, 5 mM GSH
[7] = Homo sapiens, HCT-116, 48 h, w/o GSH, read-out: IC50 HCT-116 w/o GSH
[8] = Homo sapiens, HT-29, 48 h, read-out: IC50 HT-29 5 mM GSH
[9] = Homo sapiens, HT-29, 48 h, read-out: IC50 HT-29 w/o GSH
[10] = Homo sapiens, HCT-116, read-out: IC50 HCT-116 5 mM GSH, 72 h, prepared in DMA, 5 mM GSH
[11] = Homo sapiens, HCT-116, 48 h, prepared in DMSO, read-out: IC50 HCT-116
[12] = Homo sapiens, HCT-116, 72 h, prepared in DMA, w/o GSH, read-out: IC50 HCT-116 w/o GSH
[13] = Homo sapiens, HT-29, 48 h, read-out: IC50 HT-29
[14] = 72 h, prepared in DMA, w/o GSH, read-out: IC50 HCT-116 w/o GSH
[15] = read-out: IC50 HCT-116 5 mM GSH, 72 h, prepared in DMA, 5 mM GSH
[16] = read-out: IC50 HT-29 5 mM GSH, 48 h, prepared in DMA, 5 mM GSH
[17] = read-out: IC50 HT-29 w/o GSH, 48 h, prepared in DMA, w/o GSH
[18] = read-out: IC50 HT-29, 48 h, prepared in DMSO

Structure (SMILES) | IC50 (HCT-116; [6]) [µM] | IC50 (HCT-116; [7]) [µM] | cytotoxicity against CRC cell lines, in words [1] | IC50 (HT-29; [8]) [µM] | IC50 (HT-29; [9]) [µM] | IC50 (HCT-116; [10]) [µM] | IC50 (HCT-116; [11]) [µM] | IC50 (HCT-116; [12]) [µM] | IC50 (HT-29; [13]) [µM] | further results
O=C(CCCCCN1C(=O)CC(SCCOCCOCCOc2cc(O)c(C(=O)CCc3ccc(O)cc3)c(O[C@@H]3O[C@H](CO)[C@@H](O)C(O)[C@H]3O)c2)C1=O)OCn1cc(F)c(=O)[nH]c1=O (stereo partly drawn) [Compound 4, (5-Fluoro-2,4-dioxo-3,4-dihydropyrimidin-1(2H)-yl)methyl 6-(3-((2-(2-(2-(3-hydroxy-4-(3-(4-hydroxyphenyl)propanoyl)-5-(((2S,3R,5S,6R)-3,4,5-trihydroxy-6-(hydroxymethyl)tetrahydro-2H-pyran-2-yl)oxy)phenoxy)ethoxy)ethoxy)ethyl)thio)-2,5-dioxopyrrolidin-1-yl)hexanoate] | > 100 | 97.4 ± 20.3 | poorly cytotoxic | 93.6 ± 9.4 | > 100 |  |  |  |  | 
O=C(CCCCCN1C(=O)CC(SCCOCCOCCOc2cc(O)c(C(=O)CCc3ccc(O)cc3)c(O)c2)C1=O)OCn1cc(F)c(=O)[nH]c1=O (centres unmarked) [Compound 5, (5-Fluoro-2,4-dioxo-3,4-dihydropyrimidin-1(2H)-yl)methyl 6-(3-((2-(2-(2-(3,5-dihydroxy-4-(3-(4-hydroxyphenyl)propanoyl)phenoxy)ethoxy)ethoxy)ethyl)thio)-2,5-dioxopyrrolidin-1-yl)hexanoate] | 82.8 ± 4.18 | 75 ± 13.7 | poorly cytotoxic | 86.9 ± 2.9 | 43.7 ± 5 |  |  |  |  | half-life in human plasma [2]: 48 min; release of 5-FU, in words ([3]; 5 mM GSH, after 48 h): Little 5-FU was released
O=C(CCCSSCCOCCOCCOc1cc(O)c(C(=O)CCc2ccc(O)cc2)c(O[C@@H]2O[C@H](CO)[C@@H](O)C(O)[C@H]2O)c1)OCn1cc(F)c(=O)[nH]c1=O (stereo partly drawn) [Compound 6, (5-fluoro-2,4-dioxo-3,4-dihydropyrimidin-1(2H)-yl)methyl 4-((2-(2-(2-(3-hydroxy-4-(3-(4-hydroxyphenyl)propanoyl)-5-(((2S,3R,5S,6R)-3,4,5-trihydroxy-6-(hydroxymethyl)tetrahydro-2H-pyran-2-yl)oxy)phenoxy)ethoxy)ethoxy)ethyl)disulfanyl)butanoate] | 23.8 | 54.9 |  | 8 ± 0.52 | 59.8 ± 7.93 |  |  |  |  | half-life at 2.5 mM ([3]; PBS containing GSH, pH 7.4, highly reductive environments, read-out: half-lives in highly reductive environments): < 300 min
O=C(CCc1cn(CCOCCOCCOc2cc(O)c(C(=O)CCc3ccc(O)cc3)c(O[C@@H]3O[C@H](CO)[C@@H](O)C(O)[C@H]3O)c2)nn1)OCn1cc(F)c(=O)[nH]c1=O (stereo partly drawn) [Compound 8, (5-Fluoro-2,4-dioxo-3,4-dihydropyrimidin-1(2H)-yl)methyl 3-(1-(2-(2-(2-(3-hydroxy-4-(3-(4-hydroxyphenyl)propanoyl)-5-(((2S,3R,5S,6R)-3,4,5-trihydroxy-6-(hydroxymethyl)tetrahydro-2H-pyran-2-yl)oxy)phenoxy)ethoxy)ethoxy)ethyl)-1H-1,2,3-triazol-4-yl)propanoate] |  | > 100 | poorly cytotoxic |  | > 100 |  |  |  |  | 
O=C(CCc1ccc(O)cc1)c1c(O)cc(OCCOCCOCCS)cc1O [Compound 17, 1-(2,6-Dihydroxy-4-(2-(2-(2-mercaptoethoxy)ethoxy)ethoxy)phenyl)-3-(4-hydroxyphenyl)propan-1-one] | 15.9 ± 0.89 | 15.5 ± 0.72 |  | 24.2 ± 0.4 | 29.1 ± 6.14 | 15.9 ± 0.89 | 15.5 ± 0.72 | 15.5 ± 0.72 | 29.1 ± 6.14 | IC50 ([1]; Homo sapiens, HCT-116 and HT-29, over Tables 1 to 3): 15 to 30 µM
CCc1c2c(nc3ccc(OC(=O)OCCSSCCOCCOCCOc4ccc(O)c(C(=O)CCc5ccc(O)cc5)c4O[C@@H]4O[C@H](CO)[C@@H](O)[C@H](O)[C@H]4O)cc13)-c1cc3c(c(=O)n1C2)COC(=O)[C@]3(O)CC [Compound 30, (S)-4,11-diethyl-4-hydroxy-3,14-dioxo-3,4,12,14-tetrahydro-1H-pyrano[3′,4′:6,7]indolizino[1,2-b]quinolin-9-yl(2-((2-(2-(2-(4-hydroxy-3-(3-(4-hydroxyphenyl)propanoyl)-2-(((2S,3R,4S,5S,6R)-3,4,5-trihydroxy-6-(hydroxymethyl)tetrahydro-2H)pyran-2-yl)oxy)phenoxy)ethoxy)ethoxy)ethyl)disulfanyl)ethyl) carbonate] |  |  | less or similar cytotoxicity |  |  |  |  |  |  | IC50 (HCT-116; [14]): 0.00244 ± 0.00017 µM; IC50 (HCT-116; [15]): 0.00257 ± 0.00013 µM; half-life in human plasma [2]: 20 min; release rate of SN-38 ([3]; 5 mM GSH): about 60%; IC50 (HT-29; [16]): 0.0301 ± 0.0026 µM; IC50 (HT-29; [17]): 0.0396 ± 0.00345 µM
CCc1c2c(nc3ccc(OCc4ccc(NC(=O)[C@H](CCCNC(N)=O)NC(=O)[C@@H](NC(=O)CCCCN5C(=O)CC(SCCOCCOCCOc6cc(O)c(C(=O)CCc7ccc(O)cc7)c(O)c6)C5=O)C(C)C)cc4)cc13)-c1cc3c(c(=O)n1C2)COC(=O)[C@]3(O)CC (some centres unmarked) [Compound 38] |  |  |  |  |  |  |  |  |  | anti-tumor efficacy (tumor area), in words [4]: good therapeutic efficacy than irinotecan; also recorded: better anti-tumor efficacy than irinotecan; body weight change, in words [5]: did not decrease the body weight; also recorded: no significant change in the body weight; cytotoxicity in HT-29 cell line, in words (HT-29): less sensitive; IC50 (HT-29; [18]): > 100 µM
O=C(CCc1ccc(O)cc1)c1c(O)cc(O)cc1O [Phloretin (3), phloretin, reference compound] |  |  |  | > 100 | > 100 | 77.6 ± 3.42 | > 100 | > 100 | > 100 | 
O=C(CCc1ccc(O)cc1)c1c(O)cc(O)cc1O[C@@H]1O[C@H](CO)[C@@H](O)[C@H](O)[C@H]1O [Phlorizin (2), phlorizin, reference compound] |  |  |  | > 100 | > 100 | > 100 | > 100 | > 100 | > 100 | 
CCc1c2c(nc3ccc(O)cc13)-c1cc3c(c(=O)n1C2)COC(=O)[C@]3(O)CC [SN-38 (28), SN-38, reference compound] |  |  |  |  |  |  |  |  |  | IC50 (HCT-116; 48 h, prepared in DMSO, read-out: IC50 HCT-116): 0.0549 ± 0.00386 µM; IC50 (HCT-116; [14]): 0.00237 ± 4e-05 µM; IC50 (HCT-116; [15]): 0.00288 ± 8e-05 µM; IC50 ([1]; HCT-116 and HT-29, Tables 2 and 3): 0.002 to 0.43 µM; IC50 (HT-29; [16]): 0.0113 ± 0.00073 µM; IC50 (HT-29; [18]): 0.43 ± 1e-05 µM; IC50 (HT-29; [17]): 0.0134 ± 0.0004 µM
